The numbers were not newly measured in patent publication US20050113452A1, “Composition and dosage form for sustained effect of levodopa” (priority 2003, published 2005), which cites them from elsewhere.

The subject of the data set is Parkinson's disease patients. The note with it: especially when the two drugs are delivered together, Camicioli et al. 2001.

For `COC(=O)C(c1ccccc1)C1CCCCN1` (stereo not shown) [Methylphenidate, methylphenidate], the “Motor effects when used with levodopa” value is recorded as “severe dyskinesia”.
